Results: US7476655B2, “Materials and methods for regulating blood flow” (University of Florida Research Foundation, Inc., priority 2005, dated 2009)

Experiments:
cGMP-specific PDE = cGMP-specific PDE activity in PAEC (hydrolysis of 3H-cGMP in supernatant); format: cell-based; conditions: 10 μM, 1 hr at 37° C., compared to control (FIG. 3)
Protocol: The synthetic peptides were evaluated to asses any association with modulation of cGMP-specific PDE activity in PAEC.
Cell monolayers were incubated in RPMI 1640 medium with or without (control) the presence of 10 μM each of P3, P4, P6 or Zaprinast for 1 hr at 37° C. After incubation, cells were washed, homogenized, and supernatant were collected by centrifugation at 15,000×g for 15 min at 4° C. PDE activity in the supernatant were measured by monitoring hydrolysis of 3H-cGMP as previously described (16).

hypoxic mice lungs = assay: vasodilator response in excised hypoxic mouse lungs; design: species or system C57BL/6J mice; conditions: 15 μM, with or without L-NAME 100 μM (FIG. 4)
Protocol: Specific pathogen-free female C57BL/6J mice (30-35 g body weight) were anesthetized with pentobarbital (60 mg/kg, ip), and the lungs were excised from the thorax, ventilated with air (control) or with 0% oxygen for 1 hour at 60 breaths/min with a SAR-830 series small animal ventilator at a tidal volume of 0.6-0.8 ml/100 g body weight. After development of hypoxic vasoconstriction, vasodilator response was monitored by addition of 15 μM each of P3, P4, P6 or zaprinast with or without the presence of nitric oxide synthase inhibitor (L-NAME, 100 μM). The vasodilatory response was continuously monitored as previously described (Hu et al. (2004) Am. J. Physiol. Lung Cell Mol. Physiol. 286:[…]-[…]).

eNOS = assay: catalytic activity of eNOS in cultured pulmonary artery endothelial cells ([3H]-citrulline formation from [3H]-L-arginine); format: cell-based; conditions: PAEC monolayers, varying concentrations, 37° C., 1 hr, compared to control (FIG. 2)
Protocol: The effects of the synthetic peptides (P3, P4, and P6) of the subject invention on the catalytic activity of eNOS were examined using a cultured pulmonary artery endothelial cell (PAEC) model.
PAEC monolayers were incubated in RPMI 1640 medium with or without (control) the presence of varying concentrations of P3, P4, or P6 at 37° C. for 1 hr. After incubation, the catalytic activity of eNOS was determined as previously described by monitoring formation of [3H]-citrulline from [3H]-L-arginine (Chen, S., J. M. Patel and E. R. Block ER (2000) “Angiotensin IV-mediated pulmonary artery vasorelaxation is due to endothelial intracellular calcium release” Am. J. Physiol. Lung Cell Mol. Physiol. 279:L849-L856; and Patel, J. M., Y. D. Li, J. L. Zhang et al. (1999) “Increased expression of calreticulin is linked to Ang-IV-mediated activation of lung endothelial NOS” Am. J. Physiol Lung Cell Mol. Physiol. 277:L794-L801).

hypoxic lungs [1] = assay: in vivo vasodilation effect in rats exposed to hypoxia (10% inspired O2) for 2 to 6 weeks; design: species or system Sprague Dawley rats; conditions: 10 mg/kg or 20 mg/kg ip once every day
Protocol: Specific pathogen-free Sprague Dawley rats (200-250 g body weight) were exposed to hypoxia (10% inspired O2) in a Coy Laboratory hypoxia chamber equipped with auto purge, airlock, and automated live animal filtration and dehumidification systems for 2 to 6 weeks. Control (normoxia) animals were maintained in similar humidity and temperature environment. Hypoxia exposure was 24 hr/day, except when the chamber was open twice a week for 10-15 min each to clean cages and replenish food and water. All rats were exposed to 12:12-hr light/dark cycle and allowed free access to standard rat food and water. Some rats were administered P3 (+P3) in saline (10 mg/kg or 20 mg/kg, ip) or saline alone (−P3) once every day starting 24 hr prior to initiation of exposure to hypoxia. After 2, 3, and 6 weeks exposure animals were use to measure various parameters including changes in pulmonary artery pressure, lung weight/body weight (LW/BW) ratio, and right vertical/heart weight (RV/HW) ratio.

hypoxic lungs [2] = assay: in situ lung perfusion, pulmonary arterial pressure, rat model of hypoxic pulmonary hypertension; format: in vivo, Sprague Dawley rats; conditions: for pulmonary arterial pressure (PAP): infusion of 20 μM (FIG. 6)
Protocol: (§1) Specific pathogen-free Sprague Dawley rats (200-250 g body weight) were anesthetized with pentobarbital (60 mg/kg, ip). After confirmation of deep anesthesia, the trachea was cannulated with an 18-G blunt-tipped catheter and ventilated (SAR-830/p small animal ventilator, CWE, Ardmoore, Pa.) at a tidal volume of 2.5 ml/min with warm humidified 21% O2/5% CO2/74% N2 at 60 breaths/min with peak inspiratory and expiratory pressures of 9 cm and 3 cm H2O, respectively. A thoracotomy was performed and 100 units heparin injected into the right ventricle (RV). PE-90 polyethylene tubing connected to a Cook Double Lumen Central Venous Catheter (Cook Critical Care, Bloomington, Ind.) was placed in the left atrium through the left vetricle and tied in place. After placement of another PE-90 polyethylene tube connected with a double lumen catheter in the main pulmonary artery (PA), the lung were ventilated with 21% O2/5% CO2/74% N2 (normoxic) at constant end-expiratory pressure of 20 cm H2O and perfused in situ in the open chest with RPMI 1640 without pH indicator containing 4% Ficoll at a constant flow of 2 ml/min. After 30 min, the ventilation mixture was changed to 2% O2/5% CO2/93% N2 (hypoxic) for 30 min and change in PA pressure was continuously recorded using PO-NE-MAH-P3P Lung Perfusion System software (Gould Instrument System) and the perfusate samples were collected to determine level of NO release as previously reported (Hu et al. Am. J. Physiol. Lung Cell Mol. Physiol. 286: L1066-L1074, 2004). The ventilation gas (hypoxic) was return to normoxic gas, and the lungs were perfused with P3 (20 and 40 μM) in RPMI 1640 or RMPI 1640 for 10 min, after which the hypoxic challenge with 2% O2 was repeated, and the PA pressure response was recorded.

NO release = NO release in perfusates of in situ perfused rat lungs; format: in vivo, Sprague Dawley rats
Protocol: as §1, with “After placement of another PE-90 polyethylene tube connected with a double lumen catheter in the main pulmonary artery (PA), the lung were ventilated with 21% O2/5% CO2/74% N2 (normoxic) at constant end-expiratory pressure of 20 cm H2O and perfused in situ in the open chest with RPMI 1640 without pH indicator containing 4% Ficoll at a constant flow of 2 ml/min.” left out

With `CCCOc1ccccc1-c1nc2nn[nH]c2c(=O)[nH]1` [Zaprinast, reference compound] the “cGMP-specific catalytic activity of PDE” value (cGMP-specific PDE) was “loss PDE activity” and the “vasorelaxation of hypoxic mice lungs” value (hypoxic mice lungs) was “vasorelaxtion”.

With “KKRFNSISCSSWRRKRKKR (Peptide (P4) used according to the subject invention.)” the “cGMP-specific catalytic activity of PDE” value (cGMP-specific PDE) was “significantly reduced” and the “catalytic activity of eNOS” value (eNOS) was “significantly enhanced in a dose-dependent manner”.

In the case of “WRRKRKES (Peptide (P6) used according to the subject invention.)”, the “cGMP-specific catalytic activity of PDE” value (cGMP-specific PDE) is reported as “significantly reduced” and the “catalytic activity of eNOS” value (eNOS) is reported as “significantly enhanced in a dose-dependent manner”.

“KRFNSISCSSWRRKR (Peptide (P3) used according to the subject invention.)” was tested, and the “hypoxia-induced PAP pressure” value (hypoxic lungs [1]; hypoxia (FIG. 11)) was “attenuated”, the “hypoxia-induced RV/HW ratio” value (hypoxic lungs [1]; hypoxia (FIG. 12)) was “attenuated” and the “magnitude of reduction of PAP in hypoxic lung versus normoxic lungs” value (hypoxic lungs [2]; hypoxic compared with normoxic lungs) was “much greater”. For the same compound, the “pulmonary arterial pressure (PAP)” value (hypoxic lungs [2]; hypoxic lungs) was “significantly attenuated”, the “attenuation of PAP at 40 μM relative to 20 μM” value (hypoxic lungs [2]; normoxic and hypoxic lungs, 40 μM) was “comparable” and the “pulmonary arterial pressure (PAP)” value (hypoxic lungs [2]; normoxic lungs) was “significantly attenuated”. The “cGMP-specific catalytic activity of PDE” value (cGMP-specific PDE) was “significantly reduced”, the “NO release in perfusates” value (NO release; hypoxic lungs (FIG. 7)) was “increases” and the “NO release in perfusates” value (NO release; normoxic lungs (FIG. 7)) was “increases”. The “catalytic activity of eNOS” value (eNOS) was “significantly enhanced in a dose-dependent manner”.
